Measurements published in publication PMC7607848 (Journal of medicinal chemistry, 2018).

Experiments:
[1] = system: alcohol-induced liver steatosis; conditions: past studies; cited from earlier work
[2] = system: CP55940-induced hypothermia (centrally located CB1 receptors); conditions: rodents; cited from earlier work
hCB1 [3] = target: T1, hCB1 (Homo sapiens, UniProt P21554)
hCB1 [4] = target: T1, hCB1; test: calcium-mobilization inverse-agonist assay in CHO-hCB1 cells; conditions: neutral antagonist or inverse agonist

T1 sequence (P21554 whole entry): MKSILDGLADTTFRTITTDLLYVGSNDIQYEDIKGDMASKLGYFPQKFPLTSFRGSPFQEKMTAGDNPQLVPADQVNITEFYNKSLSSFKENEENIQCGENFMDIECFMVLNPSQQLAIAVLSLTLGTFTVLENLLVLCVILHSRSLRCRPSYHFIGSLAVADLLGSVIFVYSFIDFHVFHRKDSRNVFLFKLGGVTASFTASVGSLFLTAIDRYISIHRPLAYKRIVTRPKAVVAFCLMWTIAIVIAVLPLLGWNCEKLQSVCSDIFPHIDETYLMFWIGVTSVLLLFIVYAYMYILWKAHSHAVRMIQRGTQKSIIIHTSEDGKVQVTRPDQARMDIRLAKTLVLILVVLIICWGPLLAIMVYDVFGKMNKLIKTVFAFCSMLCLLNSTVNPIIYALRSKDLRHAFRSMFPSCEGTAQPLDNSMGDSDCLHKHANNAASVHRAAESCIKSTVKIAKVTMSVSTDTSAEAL

Cc1c(C(=O)NN2CCCCC2)nn(-c2ccc(Cl)cc2Cl)c1-c1ccc(Cl)cc1 [Compound 1, Rimonabant]
reduction of alcoholic steatosis (AS) [1]: effective at reducing AS

CCNC1(C(N)=O)CCN(c2ncnc3c2nc(-c2ccccc2Cl)n3-c2ccc(Cl)cc2)CC1 [Compound 2, otenabant]
blocking of CP55940-induced reduction of body temperature [2]: known to block this effect

N#CC(c1ccccc1)N1CCN(c2ncnc3c2nc(-c2ccccc2Cl)n3-c2ccc(Cl)cc2)CC1 (stereo not shown) [Compound 21, {4-[8-(2-Chlorophenyl)-9-(4-chlorophenyl)-9H-purin-6-yl]-piperazin-1-yl}(phenyl)acetonitrile]
selectivity for hCB1 over hCB2 (binding assays) (hCB1 [3]): ~ 60 fold

Clc1ccc(-n2c(-c3ccccc3Cl)nc3c(N4CCN(Cc5ccccc5Cl)CC4)ncnc32)cc1 [Compound 25, 6-[4-(2-Chlorobenzyl)piperazin-1-yl]-8-(2-chlorophenyl)-9-(4-chlorophenyl)-9H-purine]
functional mode at hCB1 (hCB1 [4]): inverse agonist
